Test results: patent US8202890B2, “Pest control agent” (Meiji Seika Pharma Co., Ltd., priority 2006, dated 2012)

Experiments:
[1] = system: Myzus persicae; experiment: Pesticidal effect against Myzus persicae (cabbage leaf disk); format: in vivo; settings: Myzus persicae first instar larvae, spread, 3 days, 25° C.
Source text: A leaf disk having a diameter of 2.8 cmφ was cut out from a cabbage grown in a pot and was placed in a 5.0 cm-Schale. Four adult aphids of Myzus persicae were released in the Schale. One day after the release of the adult aphids, the adult aphids were removed. The number of larvae at the first instar born in the leaf disk was adjusted to 10, and a test solution, which had been adjusted to a predetermined concentration by the addition of a 50% aqueous acetone solution (0.05% Tween 20 added) was spread over the cabbage leaf disk. The cabbage leaf disk was then air dried. Thereafter, the Schale was lidded and was allowed to stand in a temperature-controlled room (light period 16 hr-dark period 8 hr) (25° C.).
(§1) The death rate of larvae was calculated by the following equation. Death rate (%)={number of dead larvae/(number of survived larvae+number of dead larvae)}×100 The concentrations which gave the death rate of 90% or more are shown in Table 2.

[2] = system: Pseudococcus comstocki; experiment: Pesticidal effect against Pseudococcus comstocki (Phaseolus vulgaris leaf disk); format: in vivo; settings: Pseudococcus comstocki first instar larvae, spread, 3 days, 25° C.
Description: A leaf disk having a diameter of 2.8 cmφ was cut out from a leaf of Phaseolus vulgaris and was placed on an agar in a plastic cup, into which ten (10) of larvae of Pseudococcus comstocki at the first instar were released. A test solution, which had been adjusted to a predetermined concentration by the addition of a 50% aqueous acetone solution (0.05% Tween 20 added) was spread. After air dried, it was allowed to stand in a temperature-controlled room (light period 16 hr-dark period 8 hr) (25° C.).
as §1

[3] = system: Aphis gossypii; experiment: Pesticidal effect against Aphis gossypii (cucumber leaf disk); format: in vivo; settings: Aphis gossypii first instar larvae, spread, 3 days, 25° C.
Source text: A leaf disk having a diameter of 2.0 cmφ was cut out from a cucumber grown in a pot and was placed in a 5.0 cm-Schale. A test solution, which had been adjusted to a predetermined concentration by the addition of a 50% aqueous acetone solution (0.05% Tween 20 added) was spread over the […] leaf disk. After air dried, ten (10) of larvae of Aphis gossypii at the first instar were released in the Schale. Thereafter, the Schale was lidded and was allowed to stand in a temperature-controlled room (light period 16 hr-dark period 8 hr) (25° C.).
as §1

[4] = system: Plutella xylostella L larvae; settings: in vivo; cited from earlier work
[5] = system: Tenebrio molitor L; settings: in vivo; cited from earlier work
[6] = system: larvae of Helicoverpa zea; settings: in vivo; cited from earlier work

Compound | Concentration (ppm) for the death rate of 90% or more, Test Example 1 [1] | Concentration (ppm) for the death rate of 90% or more, Test Example 3 [2] | Concentration (ppm) for the death rate of 90% or more, Test Example 2 [3] | insecticidal activity against Plutella xylostella L larvae [4] | insecticidal activity against Tenebrio molitor L [5] | insecticidal activity against larvae of Helicoverpa zea [6]
CC1(COC(=O)C2CC2)C2CC(=O)[C@@]3(C)Oc4cc(-c5cccnc5)oc(=O)c4[C@H](O)C3[C@@]2(C)CC[C@@H]1OC(=O)C1CC1 (stereo partly drawn) [Compound 1] | 0.010 ppm | 0.156 ppm | 0.078 ppm |  |  | 
CC1(COC(=O)C2CC2)C2CC[C@@]3(C)Oc4cc(-c5cccnc5)oc(=O)c4[C@H](O)C3[C@@]2(C)CC[C@@H]1OC(=O)C1CC1 (stereo partly drawn) [Compound 2] | 0.039 ppm | 0.625 ppm | 0.078 ppm |  |  | 
Pyripyropene A |  |  |  | insecticidal activity | insecticidal activity | insecticidal activity
